Assay results as given in article PMC3169562, “The Hedgehog Receptor Patched Is Involved in Cholesterol Transport” (PLoS ONE, 2011).

Assays:
human Patched (hPtc) [1] = target: T1, human Patched (hPtc) (Homo sapiens, UniProt Q13635); experiment: fluorescent sterol efflux from yeast over-expressing hPtc versus Myodulin or hSmo controls; type: cell-based; set-up: gene PTCH1; hPtc-MAP over-expressed in S. cerevisiae
T1 sequence (Q13635 1-1447): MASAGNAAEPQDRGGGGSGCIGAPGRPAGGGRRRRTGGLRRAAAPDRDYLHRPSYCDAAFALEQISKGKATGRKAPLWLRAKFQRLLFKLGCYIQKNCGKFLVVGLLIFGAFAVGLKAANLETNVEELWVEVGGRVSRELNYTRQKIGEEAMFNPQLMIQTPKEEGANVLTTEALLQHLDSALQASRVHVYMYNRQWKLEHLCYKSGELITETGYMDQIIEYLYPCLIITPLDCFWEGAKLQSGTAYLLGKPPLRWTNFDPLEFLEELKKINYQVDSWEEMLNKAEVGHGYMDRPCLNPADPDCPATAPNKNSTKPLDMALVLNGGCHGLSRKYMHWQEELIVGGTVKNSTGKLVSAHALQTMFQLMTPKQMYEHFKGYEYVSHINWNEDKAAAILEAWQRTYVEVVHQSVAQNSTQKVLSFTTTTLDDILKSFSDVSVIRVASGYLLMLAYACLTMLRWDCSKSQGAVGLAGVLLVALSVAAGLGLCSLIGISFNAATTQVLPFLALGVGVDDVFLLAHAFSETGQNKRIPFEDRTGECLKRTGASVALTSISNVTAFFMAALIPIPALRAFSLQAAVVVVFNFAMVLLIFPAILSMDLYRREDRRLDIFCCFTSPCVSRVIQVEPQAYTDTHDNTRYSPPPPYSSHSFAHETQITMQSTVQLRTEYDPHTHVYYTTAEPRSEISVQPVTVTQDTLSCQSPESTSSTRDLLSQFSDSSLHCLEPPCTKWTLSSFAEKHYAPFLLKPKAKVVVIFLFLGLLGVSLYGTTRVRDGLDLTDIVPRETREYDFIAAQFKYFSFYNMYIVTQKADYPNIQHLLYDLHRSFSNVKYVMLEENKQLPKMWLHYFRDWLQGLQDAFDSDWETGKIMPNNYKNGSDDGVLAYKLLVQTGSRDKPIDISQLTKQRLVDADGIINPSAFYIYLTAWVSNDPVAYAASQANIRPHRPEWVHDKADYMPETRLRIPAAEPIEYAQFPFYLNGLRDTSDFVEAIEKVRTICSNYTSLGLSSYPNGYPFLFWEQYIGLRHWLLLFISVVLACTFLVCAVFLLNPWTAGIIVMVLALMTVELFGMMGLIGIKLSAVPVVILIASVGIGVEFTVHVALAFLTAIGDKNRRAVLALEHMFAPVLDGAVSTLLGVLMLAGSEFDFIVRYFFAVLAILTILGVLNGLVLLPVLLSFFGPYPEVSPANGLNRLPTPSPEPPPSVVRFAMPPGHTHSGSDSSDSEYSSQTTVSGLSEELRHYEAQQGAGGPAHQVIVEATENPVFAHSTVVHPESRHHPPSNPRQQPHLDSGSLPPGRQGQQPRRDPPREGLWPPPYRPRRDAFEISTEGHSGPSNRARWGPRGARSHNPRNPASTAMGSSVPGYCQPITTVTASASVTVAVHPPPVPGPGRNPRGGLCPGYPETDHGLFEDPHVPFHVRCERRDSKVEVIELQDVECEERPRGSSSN

human Patched (hPtc) [2] = target: T1, human Patched (hPtc); experiment: SPR (Biacore): purified hPtc injected over thiocholesterol covalently coupled to a CM5 chip; Myodulin as negative control; type: binding; set-up: gene PTCH1

Row | SMILES | % increase of efflux (human Patched (hPtc) [1]) | SPR (Biacore): purified hPtc injected over thiocholesterol covalently coupled to (human Patched (hPtc) [2])
1 | CC1=CC(C)=[N+]2C1=C(CC[C@@H](C)[C@H]1CC[C@H]3[C@@H]4CC=C5C[C@@H](O)CC[C@]5(C)[C@H]4CC[C@]13C)c1c(C)cc(C)n1[B-]2(F)F [BODIPY-cholesterol] | ~ 88 % increase of efflux | 
2 | CC(C)CCC[C@@H](C)[C@H]1CC[C@H]2[C@@H]3CC=C4C[C@@H](O)CC[C@]4(C)[C@H]3CC[C@]12C [cholesterol] |  | showed a clear binding of hPtc to cholesterol coupled on the fc in comparison with Myo
